From ChEMBL document CHEMBL5649166, “RIP3 induces apoptosis independent of pronecrotic kinase activity” (Mol Cell, 2014) come the findings set out here.

Assay [1] has as its target Mitogen-activated protein kinase kinase kinase 14 (Homo sapiens) (UniProt Q99558). Description: Inhibition of human NIK/MAP3K14 using at 1 uM in presence of 32P-ATP by Hotspot assay relative to control; values are per cent of control.
Assay [2] has as its target T1, NUAK family SNF1-like kinase 1 (Homo sapiens) (UniProt O60285).
T1 sequence (whole entry): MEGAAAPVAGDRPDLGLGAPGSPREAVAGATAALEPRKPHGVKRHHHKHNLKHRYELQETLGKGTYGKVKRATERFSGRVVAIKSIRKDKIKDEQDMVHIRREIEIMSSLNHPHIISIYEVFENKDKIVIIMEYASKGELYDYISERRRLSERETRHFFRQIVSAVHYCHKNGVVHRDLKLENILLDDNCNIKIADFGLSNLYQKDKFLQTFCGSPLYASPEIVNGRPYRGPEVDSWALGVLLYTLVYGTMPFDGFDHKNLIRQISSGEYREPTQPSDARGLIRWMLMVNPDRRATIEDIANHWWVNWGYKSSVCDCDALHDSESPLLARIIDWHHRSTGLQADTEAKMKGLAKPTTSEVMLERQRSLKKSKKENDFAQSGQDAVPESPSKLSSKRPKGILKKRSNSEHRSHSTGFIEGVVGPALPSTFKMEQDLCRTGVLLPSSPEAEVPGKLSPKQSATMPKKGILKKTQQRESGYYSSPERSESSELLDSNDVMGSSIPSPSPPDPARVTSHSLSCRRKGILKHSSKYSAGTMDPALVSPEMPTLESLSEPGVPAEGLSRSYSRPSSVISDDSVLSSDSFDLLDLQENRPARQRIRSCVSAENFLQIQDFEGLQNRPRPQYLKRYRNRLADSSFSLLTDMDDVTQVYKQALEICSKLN
Description: Inhibition of human ARK5/NUAK1 using KKKVSRSGLYRSPSMPENLNRPR as substrate at 1 uM in presence of 32P-ATP by Hotspot assay relative to control; values are per cent of control.

For assay [3], the target named is Mast/stem cell growth factor receptor Kit (Homo sapiens) (UniProt P10721). Description: Residual activity of human c-Kit using poly[Glu:Tyr] (4:1) as substrate at 1 uM in presence of 32P-ATP by Hotspot assay relative to control.
Assay [4] deals with Serine/threonine-protein kinase PAK 1 (Homo sapiens) (UniProt Q13153). Description: Inhibition of human PAK1 using RRRLSFAEPG as substrate at 1 uM in presence of 32P-ATP by Hotspot assay relative to control; values are per cent of control.
Assay [5] addresses Serine/threonine-protein kinase PLK3 (Homo sapiens) (UniProt Q9H4B4). In words: Residual activity of human PLK3 using casein as substrate at 1 uM in presence of 32P-ATP by Hotspot assay relative to control.
The target of assay [6] is T2, Dual specificity protein kinase TTK (Homo sapiens) (UniProt P33981).
T2 sequence (whole entry): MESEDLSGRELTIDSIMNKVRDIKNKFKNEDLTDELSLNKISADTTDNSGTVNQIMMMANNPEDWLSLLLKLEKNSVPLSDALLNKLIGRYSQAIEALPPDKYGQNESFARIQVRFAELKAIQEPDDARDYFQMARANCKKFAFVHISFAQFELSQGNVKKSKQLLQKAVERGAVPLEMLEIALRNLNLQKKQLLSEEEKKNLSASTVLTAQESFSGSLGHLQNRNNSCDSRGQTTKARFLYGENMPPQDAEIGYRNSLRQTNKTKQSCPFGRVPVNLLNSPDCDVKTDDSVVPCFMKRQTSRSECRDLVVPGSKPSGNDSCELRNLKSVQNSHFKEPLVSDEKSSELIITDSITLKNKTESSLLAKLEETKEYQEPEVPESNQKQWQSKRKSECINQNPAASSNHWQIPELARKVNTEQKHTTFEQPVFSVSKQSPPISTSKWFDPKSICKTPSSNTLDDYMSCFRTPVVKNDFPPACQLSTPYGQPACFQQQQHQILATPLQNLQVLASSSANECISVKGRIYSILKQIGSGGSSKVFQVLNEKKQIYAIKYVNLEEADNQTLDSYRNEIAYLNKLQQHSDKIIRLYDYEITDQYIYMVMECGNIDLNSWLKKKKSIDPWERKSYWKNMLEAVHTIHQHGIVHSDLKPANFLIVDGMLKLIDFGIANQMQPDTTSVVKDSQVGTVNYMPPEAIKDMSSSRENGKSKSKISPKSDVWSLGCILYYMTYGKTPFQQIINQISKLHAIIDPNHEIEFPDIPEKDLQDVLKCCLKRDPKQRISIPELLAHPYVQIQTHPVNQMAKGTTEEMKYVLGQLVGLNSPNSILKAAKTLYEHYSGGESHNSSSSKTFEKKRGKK
In words: Inhibition of human TTK using at 1 uM in presence of 32P-ATP by Hotspot assay relative to control; values are per cent of control.

For assay [7], the target named is T3, Inhibitor of nuclear factor kappa-B kinase subunit alpha (Homo sapiens) (UniProt O15111).
T3 sequence (whole entry): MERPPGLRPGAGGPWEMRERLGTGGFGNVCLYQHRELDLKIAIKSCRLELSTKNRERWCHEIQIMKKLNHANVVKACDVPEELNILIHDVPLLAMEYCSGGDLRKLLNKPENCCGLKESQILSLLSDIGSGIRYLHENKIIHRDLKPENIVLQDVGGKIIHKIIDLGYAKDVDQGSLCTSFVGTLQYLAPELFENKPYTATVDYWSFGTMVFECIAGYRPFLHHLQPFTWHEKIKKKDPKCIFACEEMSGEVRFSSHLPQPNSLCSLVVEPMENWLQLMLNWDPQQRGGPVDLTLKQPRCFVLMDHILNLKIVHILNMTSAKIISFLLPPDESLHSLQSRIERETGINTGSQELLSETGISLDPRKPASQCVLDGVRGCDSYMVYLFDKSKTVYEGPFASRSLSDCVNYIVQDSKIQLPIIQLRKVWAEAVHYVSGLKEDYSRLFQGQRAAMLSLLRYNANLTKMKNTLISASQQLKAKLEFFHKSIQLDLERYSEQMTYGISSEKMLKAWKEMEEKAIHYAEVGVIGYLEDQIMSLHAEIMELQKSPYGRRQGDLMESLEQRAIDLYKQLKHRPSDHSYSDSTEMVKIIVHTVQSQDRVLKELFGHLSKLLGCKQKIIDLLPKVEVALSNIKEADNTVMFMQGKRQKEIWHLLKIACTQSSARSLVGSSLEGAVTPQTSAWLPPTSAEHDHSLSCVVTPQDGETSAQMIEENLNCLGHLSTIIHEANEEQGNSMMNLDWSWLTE
In words: Inhibition of human IKKa/CHUK using KKKKERLLDDRHDSGLDSMKDEE as substrate at 1 uM in presence of 32P-ATP by Hotspot assay relative to control; values are per cent of control.

Serine/threonine-protein kinase PAK 1 (Homo sapiens), sequence (Q13153 whole entry): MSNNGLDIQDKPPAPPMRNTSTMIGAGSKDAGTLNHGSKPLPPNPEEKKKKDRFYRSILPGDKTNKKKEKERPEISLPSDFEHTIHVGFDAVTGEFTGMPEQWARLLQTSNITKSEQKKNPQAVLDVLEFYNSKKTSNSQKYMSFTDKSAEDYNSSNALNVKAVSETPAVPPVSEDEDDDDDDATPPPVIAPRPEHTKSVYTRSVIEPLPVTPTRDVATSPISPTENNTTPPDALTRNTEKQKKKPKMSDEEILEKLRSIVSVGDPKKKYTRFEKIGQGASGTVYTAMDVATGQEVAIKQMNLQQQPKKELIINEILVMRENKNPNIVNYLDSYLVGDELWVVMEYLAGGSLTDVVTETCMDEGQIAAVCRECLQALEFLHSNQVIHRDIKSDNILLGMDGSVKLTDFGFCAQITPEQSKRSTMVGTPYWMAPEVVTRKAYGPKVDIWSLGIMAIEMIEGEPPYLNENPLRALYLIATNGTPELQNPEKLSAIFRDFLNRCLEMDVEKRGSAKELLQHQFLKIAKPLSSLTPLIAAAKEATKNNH
Mitogen-activated protein kinase kinase kinase 14 (Homo sapiens), sequence (Q99558 whole entry, looked up): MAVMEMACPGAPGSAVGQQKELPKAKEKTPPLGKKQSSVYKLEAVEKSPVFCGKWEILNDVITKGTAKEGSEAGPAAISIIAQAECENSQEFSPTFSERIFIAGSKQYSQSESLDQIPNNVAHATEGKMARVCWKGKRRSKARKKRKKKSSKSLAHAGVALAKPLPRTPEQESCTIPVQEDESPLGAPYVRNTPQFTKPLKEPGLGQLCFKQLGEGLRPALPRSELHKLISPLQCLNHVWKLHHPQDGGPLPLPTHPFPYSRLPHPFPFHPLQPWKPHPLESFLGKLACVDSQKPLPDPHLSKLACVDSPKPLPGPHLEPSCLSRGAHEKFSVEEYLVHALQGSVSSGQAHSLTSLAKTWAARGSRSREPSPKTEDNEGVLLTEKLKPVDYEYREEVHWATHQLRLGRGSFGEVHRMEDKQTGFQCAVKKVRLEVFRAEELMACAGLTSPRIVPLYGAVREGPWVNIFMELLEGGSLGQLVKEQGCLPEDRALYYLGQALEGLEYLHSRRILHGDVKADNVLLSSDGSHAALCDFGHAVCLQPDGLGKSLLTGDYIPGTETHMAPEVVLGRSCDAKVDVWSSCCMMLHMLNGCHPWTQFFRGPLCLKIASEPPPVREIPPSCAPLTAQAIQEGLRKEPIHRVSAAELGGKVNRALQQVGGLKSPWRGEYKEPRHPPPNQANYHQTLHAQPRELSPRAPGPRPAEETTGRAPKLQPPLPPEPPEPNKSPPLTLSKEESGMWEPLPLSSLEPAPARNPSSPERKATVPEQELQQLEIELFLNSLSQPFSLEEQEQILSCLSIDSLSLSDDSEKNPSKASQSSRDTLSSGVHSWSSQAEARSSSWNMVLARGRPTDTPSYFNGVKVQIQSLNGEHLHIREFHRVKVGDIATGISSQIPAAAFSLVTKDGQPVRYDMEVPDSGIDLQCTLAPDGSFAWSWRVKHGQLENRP
Mast/stem cell growth factor receptor Kit (Homo sapiens), sequence (P10721 whole entry): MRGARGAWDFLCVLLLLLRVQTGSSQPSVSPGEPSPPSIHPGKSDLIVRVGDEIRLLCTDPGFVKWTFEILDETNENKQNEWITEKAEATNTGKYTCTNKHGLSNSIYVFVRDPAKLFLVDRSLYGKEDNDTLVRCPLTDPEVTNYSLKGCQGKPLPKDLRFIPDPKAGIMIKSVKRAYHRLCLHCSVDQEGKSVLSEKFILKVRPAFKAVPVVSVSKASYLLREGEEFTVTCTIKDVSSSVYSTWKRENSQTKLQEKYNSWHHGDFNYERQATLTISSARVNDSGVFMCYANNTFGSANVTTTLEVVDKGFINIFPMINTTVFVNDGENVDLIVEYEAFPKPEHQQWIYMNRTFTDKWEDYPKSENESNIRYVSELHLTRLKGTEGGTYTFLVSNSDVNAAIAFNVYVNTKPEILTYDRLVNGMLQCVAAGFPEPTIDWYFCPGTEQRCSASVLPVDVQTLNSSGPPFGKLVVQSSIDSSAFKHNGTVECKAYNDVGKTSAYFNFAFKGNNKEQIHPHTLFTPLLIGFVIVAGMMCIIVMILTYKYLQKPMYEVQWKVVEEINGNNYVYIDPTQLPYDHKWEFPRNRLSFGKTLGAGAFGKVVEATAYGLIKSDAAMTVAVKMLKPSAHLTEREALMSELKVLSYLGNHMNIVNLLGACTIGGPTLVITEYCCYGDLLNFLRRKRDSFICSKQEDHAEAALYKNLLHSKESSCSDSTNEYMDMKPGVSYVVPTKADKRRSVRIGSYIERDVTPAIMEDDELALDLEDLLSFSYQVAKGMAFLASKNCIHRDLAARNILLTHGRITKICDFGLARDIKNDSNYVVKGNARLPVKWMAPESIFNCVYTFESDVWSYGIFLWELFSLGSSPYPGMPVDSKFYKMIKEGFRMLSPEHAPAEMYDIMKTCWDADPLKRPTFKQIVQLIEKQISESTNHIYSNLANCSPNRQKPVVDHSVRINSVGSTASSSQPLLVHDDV
Serine/threonine-protein kinase PLK3 (Homo sapiens), sequence (Q9H4B4 whole entry, looked up): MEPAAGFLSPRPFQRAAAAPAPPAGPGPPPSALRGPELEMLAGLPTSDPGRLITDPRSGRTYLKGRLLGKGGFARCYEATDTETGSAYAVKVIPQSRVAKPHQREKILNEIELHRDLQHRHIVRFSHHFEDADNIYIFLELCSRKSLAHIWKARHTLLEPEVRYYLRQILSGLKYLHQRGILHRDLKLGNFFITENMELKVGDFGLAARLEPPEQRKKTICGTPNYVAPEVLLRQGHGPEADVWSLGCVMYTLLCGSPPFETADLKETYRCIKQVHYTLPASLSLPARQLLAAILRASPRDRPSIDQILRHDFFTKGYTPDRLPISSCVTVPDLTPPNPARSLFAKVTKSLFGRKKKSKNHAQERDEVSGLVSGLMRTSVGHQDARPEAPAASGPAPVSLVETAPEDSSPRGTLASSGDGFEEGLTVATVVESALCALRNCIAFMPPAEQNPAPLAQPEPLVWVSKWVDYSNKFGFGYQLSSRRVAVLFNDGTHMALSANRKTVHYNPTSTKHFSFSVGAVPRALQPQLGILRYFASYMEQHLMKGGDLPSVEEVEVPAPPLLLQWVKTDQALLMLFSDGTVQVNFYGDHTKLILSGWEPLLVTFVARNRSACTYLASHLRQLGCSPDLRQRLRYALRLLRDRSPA

For the compound `Cc1cc(-c2cnc(N)c3c(-c4ccc5scnc5c4)csc23)n(C)n1`, the residual activity in assay [1] was found to be 92.9%; in assay [2], 98.5%; in assay [3], 41.5%; in assay [4] it was 93.8%; in assay [5], 91.7%; in assay [6], 101%. Also, in assay [7], the residual activity turned out to be 94.8%.
On to `CC(C)S(=O)(=O)c1ccc2nccc(Nc3ccc4scnc4c3)c2c1`, for which the residual activity was determined as 89.5% in assay [1]; 98.4% in assay [2]; 95.8% in assay [3]; 96.5% in assay [4]; 102% in assay [5]; 100% in assay [6]. Moreover, the residual activity in assay [7] was found to be 88.2%.
In the case of `CNC(=O)c1ccc2c(c1)ncn2-c1ccc(CC(=O)OC(C)(C)C)cc1`, the residual activity in assay [1] was found to be 95.3%; in assay [2], 91.7%; in assay [3] it was 74.4%; in assay [4] it was 95.9%; in assay [5] it was 106%; in assay [6] it was 91%. Further, the residual activity in assay [7] was 89.9%.
